Results: patent publication US7553864B2, “Compounds for the treatment of inflammatory disorders and microbial diseases” (Schering Corporation, priority 2005, dated 2009)

target: T1, ADMP (ADAMTS-4-5) (Homo sapiens, UniProt O75173); test: ADMP activity assay (procedures of WO00/05256); format: biochemical; details: not given
T1 construct: purchased Calbiochem PF113
T1 sequence (O75173 213-837): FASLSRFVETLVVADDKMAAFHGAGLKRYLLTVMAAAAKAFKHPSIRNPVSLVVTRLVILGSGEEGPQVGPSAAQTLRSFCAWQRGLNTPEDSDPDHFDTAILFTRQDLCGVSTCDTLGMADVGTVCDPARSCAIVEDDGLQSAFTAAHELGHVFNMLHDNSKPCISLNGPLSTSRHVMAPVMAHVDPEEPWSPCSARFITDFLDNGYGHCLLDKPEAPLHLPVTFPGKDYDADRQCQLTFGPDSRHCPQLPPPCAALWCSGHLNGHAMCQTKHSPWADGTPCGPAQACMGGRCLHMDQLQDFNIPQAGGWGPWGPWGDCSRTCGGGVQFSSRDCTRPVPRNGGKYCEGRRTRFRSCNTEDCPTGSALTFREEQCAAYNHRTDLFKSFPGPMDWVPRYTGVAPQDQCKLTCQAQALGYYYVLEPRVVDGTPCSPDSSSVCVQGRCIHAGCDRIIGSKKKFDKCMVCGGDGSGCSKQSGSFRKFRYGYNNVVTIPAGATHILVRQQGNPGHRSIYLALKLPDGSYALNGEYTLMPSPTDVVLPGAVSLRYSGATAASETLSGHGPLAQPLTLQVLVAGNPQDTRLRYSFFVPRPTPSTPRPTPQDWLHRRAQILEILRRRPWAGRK
From the text: The procedures of International Patent Publication WO00/05256 (published Feb. 3, 2000) were followed for detection of ADMP Activity and for measuring the IC50 of the compounds of the present invention. This was indicative of activity against a desintgrin and metallopropeinase thrombo spondin 4 and 5 (ADAMTS-4-5).
The enzyme was purchased commercially from Calbiochem (Cat# PF113) and the peptide substrate described in the patent was custom-ordered from AnaSpec.

**Q.** Which IC50 does the source give for `COc1ccc(CNC(=O)[C@H](O)[C@@H](O)C(=O)N2CCC(C(C)=O)(c3ccccc3)CC2)cc1` [Compound 108] here?
**A.** Its IC50 is 0.25 to 1 µM.

same assay, conditions: read-out: IC50 rating (ADMP inhibitory activity)

**Q.** `C[C@H](NC(=O)C(O)C(O)C(=O)N1CCc2ccccc2C1)c1ccc(I)cc1` (stereo in doubt) [Compound 210] was tested. Which IC50 did it give?
**A.** Its IC50 is 0.25 to 1 µM.

**Q.** Which IC50 does the source give for `CN(Cc1ccccc1)C(=O)[C@H](O)[C@@H](O)C(=O)NCc1ccc(Cl)cc1` [Compound 110] here?
**A.** Its IC50 is 0.25 to 1 µM.

**Q.** `O=C(NCc1ccc(C(F)(F)F)cc1)[C@H](O)[C@@H](O)C(=O)N1CCN(c2cccc(Cl)c2)CC1` [Compound 111] was tested. Which IC50 did it give?
**A.** The IC50 was 0.25 to 1 µM.

**Q.** With `CN(CCc1ccccn1)C(=O)[C@H](O)[C@@H](O)C(=O)NCc1ccc(Cl)cc1` [Compound 113] as the compound, how does the IC50 read?
**A.** The IC50 was 0.25 to 1 µM.

**Q.** How did the IC50 turn out when `C[C@H](NC(=O)[C@H](O)[C@@H](O)C(=O)N1CCc2ccccc2C1)c1ccc(Br)cc1` [Compound 114] was run?
**A.** Its IC50 is under 0.25 µM.

**Q.** Which IC50 does the source give for `CC(=O)c1ccc(N2CCN(C(=O)[C@H](O)[C@@H](O)C(=O)NCc3ccc(Cl)cc3)CC2)cc1` [Compound 118] here?
**A.** The IC50 was over 5 µM.

**Q.** How did the IC50 turn out when `C[C@H](NC(=O)[C@H](O)[C@@H](O)C(=O)N(C)C1CCN(C)CC1)c1ccc(Br)cc1` [Compound 121] was run?
**A.** Its IC50 is 1 to 5 µM.

**Q.** `CN1CCC(N(C)C(=O)[C@H](O)[C@@H](O)C(=O)NCc2ccc(C(F)(F)F)cc2)CC1` [Compound 122] was tested. Which IC50 did it give?
**A.** Its IC50 is 0.25 to 1 µM.
